Test results as given in patent publication US4250170A, “Antibacterial agents Bu-2349A and B and method of using same” (Bristol-Myers Company, priority 1979, dated 1981).
Values after ≈ are worked out from the molar mass of the structure shown. Like-named read-outs stand apart in the source and are kept apart here.

Tests used:
[1] = tested on: Proteus stuartii (Ps-2), AAC(2'); assay: MIC, two-fold agar dilution; assay type: cell-based; conditions: 18 h; Table 3; Mueller-Hinton agar, 10^-4 dilution; enzyme AAC(2')
[2] = tested on: Staphylococcus epidermidis (Si-2), ANT (4'); assay: MIC, two-fold agar dilution; assay type: cell-based; conditions: 18 h, Table 3, Mueller-Hinton agar, 10^-4 dilution, enzyme ANT (4')
acute LD50 in mice = conditions: mouse, in vivo
[3] = tested on: Escherichia coli (Ec-72), ANT(2"); assay: MIC, two-fold agar dilution; assay type: cell-based; conditions: 18 h, Table 3, Mueller-Hinton agar, 10^-4 dilution, enzyme ANT(2")
[4] = tested on: Acidoaminococcus fermentans ATCC 25085 (Ae-1); assay: MIC against anaerobic bacteria; assay type: cell-based; conditions: 18 h; Table 4; GAM Medium, pH 7
[5] = tested on: Peptococcus aerogenes ATCC 14963 (Pe-101); assay: MIC against anaerobic bacteria; assay type: cell-based; conditions: Peptoniphilus asaccharolyticus, ATCC14963, 18 h; Table 4; GAM Medium, pH 7
[6] = tested on: Sphaerophorus necrophorus (Sn-1); assay: MIC against anaerobic bacteria; assay type: cell-based; conditions: Fusobacterium necrophorum, 18 h; Table 4; GAM Medium, pH 7
[7] = tested on: Staphylococcus aureus (Sa-77), ANT(4'); assay: MIC, two-fold agar dilution; assay type: cell-based; conditions: 18 h
[8] = tested on: S. aureus, E. coli, K. pneumoniae, P. vulgaris and P. mirabilis; assay: experimental infections in mice, overall statement; assay type: in vivo; conditions: im
Method: The in vivo antibacterial activity of Bu-2349A was determined by experimental infections in mice. Mice were challenged via the intraperitoneal route with a 100 X LD50 dose of the pathogens in a 5% suspension of hog gastric mucin (American Laboratories, Omaha, Neb.). Bu-2349A was administered by the intramuscular route immediately after the bacterial challenge.

[9] = tested on: Peptostreptococcus anaerobium B43 (Pb-1); assay: MIC against anaerobic bacteria; assay type: cell-based; conditions: 18 h, Table 4, GAM Medium, pH 7
P. vulgaris (Pv-3) = assay: MIC, agar dilution; assay type: cell-based; conditions: Proteus vulgaris, 18 h
Method: (§1) The minimum inhibitory concentrations (MIC) of Bu-2349A and B were determined against a wide variety of bacteria by the two-fold agar dilution method. Mueller-Hinton agar medium was generally used for the determination of bacterial MIC except for species of Streptococcus, Neisseria and Hemophilus for which Gonococcus agar medium (GC agar, Nissui Co., Tokyo) was used. Gifu anaerobe agar medium (GAM agar, Eiken Co., Tokyo) was used for anaerobic bacteria. The MIC's were determined after overnight incubation at 37° C. with an initial inoculum equivalent to a 10^-4 dilution of an 18-hour culture for the aerobic and anaerobic bacteria, except for Streptococcus, Neisseria and Hemophilus for which a 10^-2 dilution was used.
(§2) The influence of inoculum size on MIC was tested on Mueller-Hinton agar using an inoculum of […], 10^-2 or 10^-4 dilution of the overnight culture of test organisms.
(§3) The effect of media pH on the MIC's of Bu-2349A was determined at three pH levels (6, 7 and 8) using Mueller-Hinton agar.
(§4) The media effect on the MIC's of Bu-2349A was tested using four kinds of assay media: Mueller-Hinton agar (MHA), nutrient agar (NA), heart infusion agar (HIA) and brain heart infusion agar (BHIA). The pH was adjusted at 7 and a 10^-4 dilution of overnight culture was used for the inoculum.

S. aureus (Sa-63) = assay: MIC, agar dilution; assay type: cell-based; conditions: Staphylococcus aureus, 18 h
Method: as §1, §2, §3, §4

[10] = mouse blood level, paper disc-agar plate assay; assay type: in vivo; conditions: mice, im, 50 mg./kg.
Method: Blood levels were determined in mice following intramuscular administration of Bu-2349A at a dose of 50 mg./kg. Blood samples were collected from orbital sinuses and assayed by the paper disc-agar plate method using B. subtilis PCI 219 as the test organism.

[11] = tested on: Bacteroides fragilis (Bf-1); assay: MIC against anaerobic bacteria; assay type: cell-based; conditions: 18 h, Table 4, GAM Medium, pH 7
[12] = tested on: Bacteroides fragilis (Bf-7); assay: MIC against anaerobic bacteria; assay type: cell-based; conditions: 18 h, Table 4, GAM Medium, pH 7
[13] = tested on: Mycobacterium ranae ATCC 110 (Mr-1); assay: MIC, two-fold agar dilution; assay type: cell-based; conditions: ATCC110, 18 h, Table 3, Mueller-Hinton agar, 10^-4 dilution
[14] = tested on: Fusobacterium varium ATCC 8501 (Fv-1); assay: MIC against anaerobic bacteria; assay type: cell-based; conditions: ATCC8501, 18 h, Table 4, GAM Medium, pH 7
[15] = tested on: gram-positive and gram-negative bacteria; assay: in vitro antibacterial activity, overall statements; assay type: cell-based
Method: as §1, §2, §3, §4

[16] = tested on: Hemophylus influenzae (He-2); assay: MIC, two-fold agar dilution; assay type: cell-based; conditions: 18 h; Table 3; GC agar, 10^-2 dilution
[17] = tested on: Neisseria meningitidis (Nm-1); assay: MIC, two-fold agar dilution; assay type: cell-based; conditions: 18 h, Table 3, GC agar, 10^-2 dilution
[18] = tested on: Enterobacter cloacae (El-35), AAC(3)-3; assay: MIC, two-fold agar dilution; assay type: cell-based; conditions: 18 h, Table 3, Mueller-Hinton agar, 10^-4 dilution, enzyme AAC(3)-3
[19] = pH 6, Table 6, Mueller-Hinton Agar, 10^-4 dilution, pH 6, read-out: MIC
[20] = pH 7, Table 5, Mueller-Hinton Agar, pH 7, inoculum 10^-2 dil., read-out: MIC
[21] = pH 7, Table 5, Mueller-Hinton Agar, pH 7, inoculum 10^-4 dil., read-out: MIC
[22] = pH 7, Table 6, Mueller-Hinton Agar, 10^-4 dilution, pH 7, read-out: MIC
[23] = pH 7, Table 7, pH 7, 10^-4 dilution, BHIA, read-out: MIC
[24] = pH 7, Table 7, pH 7, 10^-4 dilution, HIA, read-out: MIC
[25] = pH 7, Table 7, pH 7, 10^-4 dilution, MHA, read-out: MIC
[26] = pH 7, Table 7, pH 7, 10^-4 dilution, NA, read-out: MIC
[27] = pH 8, Table 6, Mueller-Hinton Agar, 10^-4 dilution, pH 8, read-out: MIC

Structure (SMILES): C=C1OC(OC2C(CO)OC(Oc3ccc(C(=O)NCCCNCCCCNCCCCN)cc3)C2O)C(O)C(OC2OC(CO)C(OC3OC(C)C(N)C(O)C3NC(=O)C(C)N)C(O)C2O)C1O (stereo not drawn) [Bu-2349A]
- MIC [1]: 1.6 µg/mL (≈ 1.62 µM)
- MIC [2]: 3.1 µg/mL (≈ 3.13 µM)
- LD50 (acute LD50 in mice; im, intramuscular): 315 mg/kg
- LD50 (acute LD50 in mice; intravenous): 35 mg/kg
- MIC [3]: 1.6 µg/mL (≈ 1.62 µM)
- MIC [4]: 50 µg/mL (≈ 50.5 µM)
- MIC [5]: > 100 µg/mL
- MIC [6]: > 100 µg/mL
- MIC [7]: 12.5 µg/mL (≈ 12.6 µM)
- protection against systemic lethal infections [8]: good protection
- MIC [9]: > 100 µg/mL
- MIC (P. vulgaris (Pv-3); [19]): > 50 µg/mL
- MIC (P. vulgaris (Pv-3); pH 7): 12.5 µg/mL (≈ 12.6 µM)
- MIC (P. vulgaris (Pv-3); [20]): 6.3 µg/mL (≈ 6.36 µM)
- MIC (P. vulgaris (Pv-3); [21]): 6.3 µg/mL (≈ 6.36 µM)
- MIC (P. vulgaris (Pv-3); [22]): 6.3 µg/mL (≈ 6.36 µM)
- MIC (P. vulgaris (Pv-3); [23]): 3.1 µg/mL (≈ 3.13 µM)
- MIC (P. vulgaris (Pv-3); [24]): 1.6 µg/mL (≈ 1.62 µM)
- MIC (P. vulgaris (Pv-3); [25]): 3.1 µg/mL (≈ 3.13 µM)
- MIC (P. vulgaris (Pv-3); [26]): 1.6 µg/mL (≈ 1.62 µM)
- MIC (P. vulgaris (Pv-3); [27]): 6.3 µg/mL (≈ 6.36 µM)
- MIC (S. aureus (Sa-63); [19]): > 50 µg/mL
- MIC (S. aureus (Sa-63); pH 7): 12.5 µg/mL (≈ 12.6 µM)
- MIC (S. aureus (Sa-63); [20]): 6.3 µg/mL (≈ 6.36 µM)
- MIC (S. aureus (Sa-63); [21]): 6.3 µg/mL (≈ 6.36 µM)
- MIC (S. aureus (Sa-63); [22]): 6.3 µg/mL (≈ 6.36 µM)
- MIC (S. aureus (Sa-63); [23]): 6.3 µg/mL (≈ 6.36 µM)
- MIC (S. aureus (Sa-63); [24]): 3.1 µg/mL (≈ 3.13 µM)
- MIC (S. aureus (Sa-63); [25]): 6.3 µg/mL (≈ 6.36 µM)
- MIC (S. aureus (Sa-63); [26]): 6.3 µg/mL (≈ 6.36 µM)
- MIC (S. aureus (Sa-63); [27]): 3.1 µg/mL (≈ 3.13 µM)
- antibiotic activity in blood after 2 hours ([10]; after 2 hours): No antibiotic activity was detected
- elimination from the blood stream ([10]; after the peak): rapid elimination from the blood stream
- concentration at 0.25 h ([10]; mouse, blood, 15 minutes): 15000 ng/mL
- concentration at 0.5 h ([10]; mouse, blood, 30 minutes): 12000 ng/mL
- concentration at 1 h ([10]; mouse, blood, 60 minutes): 2800 ng/mL
- concentration at 2 h ([10]; mouse, blood, 120 minutes): > 1000 ng/mL
- Tmax ([10]; mouse, blood, read-out: time of peak blood level (converted)): 15 min
- MIC [11]: > 100 µg/mL
- MIC [12]: > 100 µg/mL
- MIC [13]: 3.1 µg/mL (≈ 3.13 µM)
- MIC [14]: > 100 µg/mL
- effect of inoculum size on antibiotic activity ([15]; Mueller-Hinton agar, 10^0, 10^-2 or 10^-4 dilution): no significant effect
- effect of medium on activity ([15]; NA and HIA compared with MHA or BHIA, pH 7): higher activity in NA and HIA than in MHA or BHIA
- inhibitory activity both in vitro and in vivo ([15]; gram-positive and gram-negative bacteria, including aminoglycoside-resistant bacteria, summary statement): marked inhibitory activity
- antibacterial activity ([15]; including bacteria which produce aminoglycoside-modifying enzymes): active
- effect of pH 6 on activity ([15]; pH 6 compared with pH 7): much reduced activity
- effect of pH 8 on activity ([15]; pH 8 compared with pH 7): approximately twice as active
- MIC [16]: > 100 µg/mL
- MIC [17]: > 100 µg/mL
- MIC [18]: 3.1 µg/mL (≈ 3.13 µM)
